Experimental data as given in patent US11491245B2, “Gadolinium chelate compounds for use in magnetic resonance imaging” (BAYER PHARMA AKTIENGESELLSCHAFT, priority 2015, dated 2022).
Entries after “also recorded” stand apart in the source; their conditions may differ.

Legend:
[1] = Contrast-enhanced magnetic resonance angiography (CE-MRA); format: in vivo, male New Zealand white rabbits; details: rabbits
Description: Reference compound 1 (Gadovist®), as an approved representative of the Gadolinium-based MRI contrast agents, was used in both dose protocols (100 μmol Gd/kg bw and 30 μmol Gd/kg bw) and compared to Example 3 (30 μmol Gd/kg bw).
The contrast-enhanced magnetic resonance angiography study was performed at a clinical 1.5 T Scanner (Magnetom Avanto, Siemens Healthcare, Erlangen, Germany). For optimal signal exploitation, a standard spine coil was used for the data acquisition. The study was done using male New Zealand white rabbits (weight 2.5-2.9 kg, n=6, Charles River Kisslegg). All animals were initially anesthetized using a body weight-adjusted intramuscular injection of a mixture (1+2) of xylazine hydrochloride (20 mg/mL, Rompun 2%, Bayer Vital GmbH, Leverkusen, Germany) and ketamine hydrochloride (100 mg/mL, Ketavet, Pfizer, Pharmacia GmbH, Berlin, Germany) using 1 mL/kg body weight. […]
Based on a localizer sequence oriented in coronal, axial, and sagittal directions, the anatomic course of the aorta was acquired. The time to peak was determined using a small intravenous test bolus (0.25 mL/2.5-2.7 kg or 0.3 mL/2.8-2.9 kg bw, Reference compound 1) and a 3D FLASH sequence (test bolus sequence: repetition time: 36.4 millisecond, echo time 1.45 millisecond, flip angle: 30 degree, spatial resolution: 1.0×0.8×17 mm). […]

[2] = Chemical stability (autoclaving at 121° C.); format: physicochemical; details: 5 mmol Gd/L in 10 mM Tris-HCl buffer, pH 7.4, 121° C. for 20 min
[3] = Whole body imaging (dynamic MRI and tissue Gd concentration); format: in vivo, male New Zealand white rabbits; details: rabbits
Description: The study was performed with a clinical whole body MRI equipped with body spine coil, abdomen flex coil, neck coil (1.5 T Magnetom Avanto, Siemens Healthcare, Erlangen, Germany). The study was done using male New Zealand white rabbits (weight 2.3-3.0 kg, n=8, Charles River Kisslegg). All animals were initially anesthetized using a body weight-adjusted intramuscular injection of a mixture (1+2) of xylazine hydrochloride (20 mg/mL, Rompun 2%, Bayer Vital GmbH, Leverkusen, Germany) and ketamine hydrochloride (100 mg/mL, Ketavet, Pfizer, Pharmacia GmbH, Berlin, Germany) using 1 mL/kg body weight. The continuous anesthesia of the intubated animals (endotracheal tube, Rueschelit Super Safe Clear, cuff 3.0 mm, Willy Ruesch AG, Kernen, Germany) was achieved by the intravenous injection of 0.9 mg propofol per kilogram per hour (10 mg/mL, Propofol-Lipuro 1%, B. Braun Melsungen AG, Melsungen, Germany). The continuous intravenous injection was performed using a MR infusion system (Continuum MR Infusion System, Medrad Europe B. V., A E Beek, Germany). The tracheal respiration (SV 900C, Maquet, Rastatt, Germany) was performed with 55% oxygen, forty breaths per minute and a breathing volume of 7 mL per kilogram body weight per minute.
Dynamic MRI measurements up to 22 min post injection with subsequent quantitative signal analysis (Siemens Mean Curve software (SYNGO Task Card, Siemens Healthcare, Erlangen, Germany), were performed for three different regions head and neck (brain, tongue, chops muscle, neck muscle), abdomen (spleen, liver, blood) and pelvis (extremity muscle). For the three different slice groups a 3D T1-weighted Vibe sequence was used (TR=4.74 ms, TE=2.38, flip=10°, 1:29 min). The dynamic measurements of the three slice groups (Head/Neck: 1:29 min, Abdomen: 0:49 min, Pelvis: 1:16 min) were done up to 22 min post injection: 1. Head/Neck: baseline, 1.4, 5.2, 8.9, 12.8, 16.5, 20.4 min, 2. Abdomen: baseline, 0.5, 4.3, 8.1, 11.9, 15.7, 19.5 min and 3. Pelvis: baseline, 2.9, 6.7, 10.5, 14.4, 18.1, 22.0 min. At 30 min post injection the animals were sacrificed and the Gd concentrations were measured using Inductively Coupled Plasma Mass Spectroscopy (ICP-MS Agilent 7500a, Waldbronn, Germany) in the following tissue samples: blood, brain, tongue, liver and extremity muscle. A quantitative image evaluation was performed for the 30 min time point p.i. due to the combination of the quantitative ICP-MS Gadolinium concentrations and the MRI region-of-interest analysis.

[4] = Pharmacokinetic parameters in rats (blood plasma kinetic); format: in vivo, male rats (Han-Wistar)
Description: Pharmacokinetic parameters of the compound of Example 3 were determined in male rats (Han-Wistar, 220-230 g, n=3). The compound was administered as a sterile aqueous solution (52.5 mmol Gd/L) as a bolus in the tail vein of the animals. The dose was 0.1 mmol Gd/kg. Blood was sampled 1, 3, 5, 10, 15, 30, 60, 90, 120, 240, 360, 480 and 1440 min post injection and the Gd concentration was determined by Inductively Coupled Plasma Mass Spectroscopy (ICP-MS Agilent 7500a, Waldbronn, Germany). The blood level was converted to plasma concentrations by division by 0.625 (plasma fraction of rat blood, assuming strictly extracellular distribution). As a control, 3 animals were treated in the same way with Gadovist®, a low molecular weight contrast agent.
The fit of the obtained data to a three compartment model (Phoenix—WinNonlin) yielded the pharmacokinetic parameters which are shown in Table 3.

[5] = male rats, 0.1 mmol Gd/kg bolus tail vein, mean
[6] = male rats, 0.1 mmol Gd/kg bolus tail vein, three compartment model, mean

CC(C(=O)NCC(=O)NCC(CNC(=O)CNC(=O)C(C)N1CCN(CC(=O)[O-])CCN(CC(=O)[O-])CCN(CC(=O)[O-])CC1)(CNC(=O)CNC(=O)C(C)N1CCN(CC(=O)[O-])CCN(CC(=O)[O-])CCN(CC(=O)[O-])CC1)CNC(=O)CNC(=O)C(C)N1CCN(CC(=O)[O-])CCN(CC(=O)[O-])CCN(CC(=O)[O-])CC1)N1CCN(CC(=O)[O-])CCN(CC(=O)[O-])CCN(CC(=O)[O-])CC1.[Gd+3].[Gd+3].[Gd+3].[Gd+3] (stereo not shown) [Example 3, Tetragadolinium [4,10-bis(carboxylatomethyl)-7-{3,6,12,15-tetraoxo-16-[4,7,10-tris-(carboxylatomethyl)-1,4,7,10-tetraazacyclododecan-1-yl]-9,9-bis({[({2-[4,7,10-tris-(carboxylatomethyl)-1,4,7,10-tetraazacyclododecan-1-yl]propanoyl}amino)acetyl]-amino}methyl)-4,7,11,14-tetraazaheptadecan-2-yl}-1,4,7,10-tetraazacyclododecan-1-yl]acetate]
image quality of the low dose protocol ([1]; 30 μmol Gd/kg bw vs 30 μmol Gd/kg bw Reference compound 1, 1.5 T): significantly better than the low dose protocol of Reference compound 1
contrast enhancement of the low dose protocol ([1]; 30 μmol Gd/kg bw vs 100 μmol Gd/kg bw Reference compound 1, 1.5 T): comparable to that of the standard dose of Reference compound 1
appearance of the solution after autoclaving [2]: still clear and colorless
slope of the linear regression between tissue gadolinium concentration and MRI signal change ([3]; tissues 30 min p.i., FIGS. 8A and 8B): 1.9
time course of contrast enhancements / signal changes ([3]; various tissues, up to 22 min post injection, vs Reference compound 1, FIG. 7): No differences in the time course of signal changes were observed; also recorded: no differences in the time course of contrast enhancements were observed
contrast enhancement (amplitude) ([3]; various tissues, vs Reference compound 1, FIG. 7): higher compared to that of Reference compound 1
AUC∞ Area under the curve (to infinity) [4, 5]: 9040 µmol·min/L
MRT Mean residence time [4, 5]: 24.1 min
V1 + V2 Volume, compartments V1 + V2 [4, 5]: 0.26 L/kg
V2 Volume, compartment V2 [4, 5]: 0.15 L/kg
Vc (V1) Volume, central compartment V1 [4, 5]: 0.11 L/kg
Vd,ss Volume of distribution at steady state [4, 5]: 0.28 L/kg
t½ α Half-life, compartment V1 [4, 6]: 1.7 min
t½ β Half-life, compartment V2 [4, 6]: 18.2 min
t½ γ Half-life, compartment V3 [4, 6]: 133 min
pharmacokinetic profile (blood plasma kinetic) ([4]; rats, versus Gadovist®, FIG. 1): comparable to that of Gadovist®
